# Results taken from US9403800B2, “Compounds for inhibition of cancer cell proliferation” (ChemRegen, Inc., priority 2012, dated 2016).
# Key:
# MCF-7 = assay: inhibition of proliferation (PicoGreen DNA assay), MCF-7; assay type: cell-based; conditions: Homo sapiens, MCF7
# Procedure: (§1) We tested a subset of the 50 sulfonamide analogues for inhibition of proliferation of the MDA-MB-231, PC-3, MCF-7, and HCT-116 cancer cell lines. Following plating of the cells (24 hrs) in eight identical 96-well plates, the cells were treated with either Compound 1, 4, 15, or vehicle (DMSO) using a dose range of 1.6 to 5000 nM. After the lysis of cells, the cell lysate was resuspended in 25 μl PBS and the DNA was quantified using a PicoGreen assay by measuring fluorescence at Ex490 nm/Em535 nm. Cell proliferation was inhibited by Compounds 1, 4, and 15 for all the cancer cell lines tested with inhibition constants listed in Table 2.
# HCT-116 [1] = assay: inhibition of proliferation (PicoGreen DNA assay), HCT-116; assay type: cell-based; conditions: Homo sapiens
# Procedure: as §1
# HCT-116 [2] = assay: stimulation of apoptosis, Caspase 3/7 cleavage (Caspase-Glo Kit), HCT-116; assay type: cell-based; conditions: Homo sapiens, HCT-116, 24 hrs
# Procedure: Given Compounds 1, 4, and 15 inhibited cancer cell proliferation, we tested whether compounds 1, 4, and 15 stimulated cancer cell apoptosis. The MDA-MB-231, MCF-7, PC-3, and HCT-116 cells were treated with the indicated compounds for 24 hrs. over a dose range from 1.6 to 5000 nM. Apoptosis was then measured by monitoring Caspase 3/7 cleavage (Caspase-Glo Kit).
# PC-3 = assay: viability (Alamar Blue), PC-3; assay type: cell-based; conditions: Homo sapiens; PC-3, 24 hrs
# Procedure: (§2) Given Compounds 1, 4, and 15 inhibited cancer cell proliferation and stimulated apoptosis, we tested the effects compounds 1, 4, and 15 on cancer cell viability and cytotoxicity. The MDA-MB-231, MCF-7, PC-3, and HCT-116 cells were treated with the indicated compounds for 24 hrs. over a dose range from 1.6 to 5000 nM. Viability and cytotoxicity were then measured by the Alamar Blue and Vibrant Cytotox assays respectively.
# LNCap = assay: viability (Alamar Blue), LNCap; assay type: cell-based; conditions: Homo sapiens, 24 hrs
# MDA-MB-231 = assay: viability (Alamar Blue), MDA-MB-231; assay type: cell-based; conditions: Homo sapiens; MDA-MB-231, 24 hrs
# Procedure: as §2
# [3] = test system: Endogenous Target Genes for Wnt & Apoptotic Pathways in MCF-7; assay: qPCR of Wnt and pro-apoptotic target genes, MCF-7; assay type: cell-based; set-up: MYC expression, % change relative to DMSO control / BAX expression, % change relative to DMSO control / BAK expression, % change relative to DMSO control / BBC3 expression, % change relative to DMSO control / FOS expression, % change relative to DMSO control: concentration or dose not given beside the values; conditions: MCF-7, 24 hrs, qPCR normalized to 36B4
# Procedure: (§3) Given the effects of Compounds 1, 4, and 15 on biological functions (e.g., proliferation, viability, and apoptosis) in several cancer cell lines, we tested the effects of compounds 1, 4, and 15 on regulation of endogenous Wnt and pro-apoptotic gene expression. MDA-MB-231, MCF-7, PC-3, and HCT-116 cancerncells were treated with the indicated compounds for 24 hrs. over a dose range from 1.6 to 5000 nM. Gene expression was measured using qPCR, normalized to the housekeeping gene, 36B4, and calculated % change relative to DMSO control. NC, no change.
# [4] = test system: Endogenous Target Genes for Wnt & Apoptotic Pathways in PC-3; assay: qPCR of Wnt and pro-apoptotic target genes, PC-3; assay type: cell-based; set-up: concentration or dose not given beside the values; conditions: PC-3, 24 hrs, qPCR normalized to 36B4
# Procedure: as §3
# [5] = test system: HCT-116 xenograft colon tumors; assay: HCT-116 xenograft colon tumors in nu/nu mice; assay type: in vivo
# Procedure: (§4) Based on the inhibition of cancer cell proliferation by the disclosed compounds the disclosed compounds likely will inhibit cancer cell migration. […] Following establishment of HCT-116 tumors, daily doses of either Compound 15 or vehicle were administered by i.p. injection at 20 mg/kg for 28 days. […] The weight of the excised HCT-116 tumors was 77% lower for the Compound 15-treated mice relative to the vehicle control on Day 28 of the experiment. […] Following establishment of PC-3 tumors, daily doses of either Compounds 1, 15 or vehicle were administered by i.p. injection at 30 mg/kg for 19 days. […] The weight of the excised PC-3 tumors was 66% for compound 15-treated mice compared to vehicle-treated controls on Day 19 of the experiment.
# PC-3 prostate tumors = assay: PC-3 prostate tumor xenograft; assay type: in vivo, mice; conditions: for growth of PC-3 prostate tumors: i.p. 30 mg/kg daily for 19 days
# Procedure: as §4
# [6] = in vivo toxicity assessment in rats; conditions: 30 mg/kg p.o. daily for one week
# Procedure: Compounds of structure I were designed to be chemically and metabolically stable and non-toxic. For example, the alpha methyl group of the quinoxalin ring system protects the sulfonamide from rapid metabolism or hydrolysis. […] We tested Compounds 4 and 15 for toxicity in rats. In one study, we dosed rats with Compound 4 (p.o) daily for one week with 30 mg/kg. In another study, we dosed rats daily for one week with 30 mg/kg Compound 15 by p.o. administration. We monitored the weights of the rats daily over the course of both studies. […] Blood was also obtained from the animals at termination of the experiment.
# [7] = test system: canonical Wnt target genes, Cyclin D1 (CCND1), Axin2 (AXIN2), and c-Myc (c-MYC); assay: mRNA levels of canonical Wnt target genes in HEK293T and SW480 cells; assay type: cell-based; conditions: HEK293T and SW480 colorectal cells
# xenopus embryos = assay: xenopus embryo development and marker gene expression; assay type: in vivo
# Source text: Previous studies highlighted the importance of Wnt pathway signaling in promoting cellular differentiation. Accordingly, the physiological relevance of the Wnt inhibitory functions of 1 was shown by the effect of this compound on the morphology of xenopus embryos during embryonic development. […] Vent2 and Otx2 are regulated by TCF3 during anteroposterior axis specification in xenopus embryos and HIPK2 antagonizes them through phosphorylation of TCF3. These phenotypes are very similar to embryos with TCF3-knockout and contrast to those of HIPK2-knockout. Together, the observations indicate that compound 1 activates HIPK2 to remove TCF proteins from their target DNA via phosphorylation.
# [8] = xenopus embryos incubated with compound
structure (smiles),measurement,setting,value
"CN1CCN(S(=O)(=O)c2ccc(N3CCCC3=O)cc2)c2ccccc21 [Compound 15, 1-(4-(4-methyl-3,4-dihydroquinoxalin-1(2H)-ylsulfonyl)phenyl)pyrrolidin-2-one]",IC50,MCF-7,20 nM
same,IC50,HCT-116 [1],15 nM
same,IC50,HCT-116 [2],15 nM
same,IC50,PC-3,32 nM
same,IC50,LNCap,124 nM
same,IC50,MDA-MB-231,93 nM
same,"BAK expression, % change relative to DMSO control",[3],+45%
same,"BAX expression, % change relative to DMSO control",[3],−25%
same,"BBC3 expression, % change relative to DMSO control",[3],+75%
same,"CCDN1 expression, % change relative to DMSO control",[3],+50%
same,"FOS expression, % change relative to DMSO control",[3],−75%
same,"JUN expression, % change relative to DMSO control",[3],+150%
same,"MYC expression, % change relative to DMSO control",[3],−50%
same,"BAK expression, % change relative to DMSO control",[4],−58%
same,"BAX expression, % change relative to DMSO control",[4],−54%
same,"BBC3 expression, % change relative to DMSO control",[4],−45%
same,"CCDN1 expression, % change relative to DMSO control",[4],−30%
same,"FOS expression, % change relative to DMSO control",[4],−24%
same,"JUN expression, % change relative to DMSO control",[4],−30%
same,"MYC expression, % change relative to DMSO control",[4],−60%
same,"weight of the excised HCT-116 tumors, lower relative to the vehicle control","[5]; i.p. 20 mg/kg daily, Day 28",77%
same,growth of HCT-116 colon tumors,"[5]; nu/nu mice, i.p. 20 mg/kg daily for 28 days",decreased the growth of HCT-116 colon tumors
same,growth of PC-3 prostate tumors,PC-3 prostate tumors,inhibited the growth of PC-3 prostate tumors
same,weight of the excised PC-3 tumors compared to vehicle-treated controls,"PC-3 prostate tumors; i.p. 30 mg/kg daily, Day 19",66%
same,food or water intake or behavior,[6],no differences in food or water intake or behavior
same,overall toxicity in healthy rats,[6],nontoxic
same,"toxicity in tissue (liver, heart, kidney, lung and intestine)",[6],did not show any indication of toxicity
same,weights of the rats compared to controls,[6],no differences in the weights of the rats were observed
same,serum clinical chemistry values compared with vehicle-treated animals,[6]; at termination,did not alter the clinical chemistry values
"CC1CCc2ccccc2N1S(=O)(=O)c1ccc(N2CCCC2=O)cc1 (stereo not shown) [Compound 4, 1-(4-(2-methyl-3,4-dihydroquinolin-1(2H)-ylsulfonyl)phenyl)pyrrolidin-2-one]",IC50,MCF-7,40 nM
same,IC50,HCT-116 [1],100 nM
same,IC50,HCT-116 [2],143 nM
same,IC50,PC-3,17 nM
same,IC50,LNCap,87 nM
same,IC50,MDA-MB-231,45 nM
same,"BAK expression, % change relative to DMSO control",[3],+25%
same,"BAX expression, % change relative to DMSO control",[3],+75%
same,"BBC3 expression, % change relative to DMSO control",[3],−40%
same,"CCDN1 expression, % change relative to DMSO control",[3],+100%
same,"FOS expression, % change relative to DMSO control",[3],−85%
same,"JUN expression, % change relative to DMSO control",[3],+50%
same,"MYC expression, % change relative to DMSO control",[3],−5%
same,"BAK expression, % change relative to DMSO control",[4],−55%
same,"BAX expression, % change relative to DMSO control",[4],−55%
same,"BBC3 expression, % change relative to DMSO control",[4],−37%
same,"CCDN1 expression, % change relative to DMSO control",[4],−42%
same,"FOS expression, % change relative to DMSO control",[4],−25%
same,"JUN expression, % change relative to DMSO control",[4],−25%
same,"MYC expression, % change relative to DMSO control",[4],−75%
same,food or water intake or behavior,[6],no differences in food or water intake or behavior
same,overall toxicity in healthy rats,[6],nontoxic
same,weights of the rats compared to controls,[6],no differences in the weights of the rats were observed
"O=C1CCCN1c1ccc(S(=O)(=O)N2CCCc3ccccc32)cc1 [Compound 1, 1-(4-(3,4-dihydroquinolin-1(2H)-ylsulfonyl)phenyl)pyrrolidin-2-one]","mRNA levels of canonical Wnt target genes CCND1, AXIN2, c-MYC",[7],decrease in mRNA levels
same,posterior development of xenopus embryos,xenopus embryos; treatment during the mid-blastula transition,inhibited posterior development
same,anterior and ventral expression domain of Vent2,xenopus embryos; [8],expanded
same,anterior marker gene Otx2 expression,xenopus embryos; [8],decreased anterior marker gene Otx2
same,IC50,MCF-7,20 nM
same,IC50,HCT-116 [1],40 nM
same,IC50,HCT-116 [2],96 nM
same,IC50,PC-3,157 nM
same,IC50,LNCap,90 nM
same,IC50,MDA-MB-231,35 nM
same,"BAK expression, % change relative to DMSO control",[3],−10%
same,"BBC3 expression, % change relative to DMSO control",[3],−55%
same,"CCDN1 expression, % change relative to DMSO control",[3],+50%
same,"FOS expression, % change relative to DMSO control",[3],−70%
same,"JUN expression, % change relative to DMSO control",[3],+125%
same,"MYC expression, % change relative to DMSO control",[3],−25%
same,"BAK expression, % change relative to DMSO control",[4],−20%
same,"BAX expression, % change relative to DMSO control",[4],+5%
same,"BBC3 expression, % change relative to DMSO control",[4],−38%
same,"CCDN1 expression, % change relative to DMSO control",[4],+10%
same,"FOS expression, % change relative to DMSO control",[4],+75%
same,"JUN expression, % change relative to DMSO control",[4],+75%
same,"MYC expression, % change relative to DMSO control",[4],+25%
same,growth of PC-3 prostate tumors,PC-3 prostate tumors,inhibited the growth of PC-3 prostate tumors
